# Test results reported in patent publication US20260285850A1, “SUBSTITUTED OXAZOLIDINONES AND IMIDAZOLINONES AS HERBICIDES” (FMC CORPORATION, priority 2023, published 2026).
# How the values were obtained:
# Type in all cases: in vivo
# [1] = tested on: sedge, umbrella (small-flower umbrella sedge, Cyperus difformis); assay: Test B flooded paddy test, visual plant response rating 0-100; settings: 250 g ai/ha, Flood, applied to paddy water, evaluated after 13 days
# Summary of the method: (§1)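 2-leaf plants; flood 3 cm over soil; compound dosed into paddy water; depth kept constant; greenhouse 13 d; visual scoring vs controls. Dash = no result.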
# [2] = tested on: barnyardgrass (Echinochloa crusgalli); assay: as above; settings: 250 g ai/ha, Flood, applied to paddy water, evaluated after 13 days
# Summary of the method: as §1
# rice (Oryza sativa) = assay: as above; settings: 250 g ai/ha, Flood, applied to paddy water, evaluated after 13 days
# Summary of the method: as §1
# [3] = tested on: ducksalad (Heteranthera limosa); assay: as above; settings: 250 g ai/ha, Flood, applied to paddy water, evaluated after 13 days
# Summary of the method: as §1
# [4] = tested on: ryegrass, Italian (italian ryegrass, Lolium multiflorum); assay: Test A postemergence application, visual injury rating 0-100; settings: 10 days
# Summary of the method: (§2)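 Greenhouse test: loam/sand pots received a surfactant-containing formulation, as a preemergence directed soil spray or a postemergence spray on young plants. Injury was judged visually at day 10 relative to untreated controls.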
# [5] = tested on: oat, wild (wild oat, Avena fatua); assay: as above; settings: 10 days
# Summary of the method: as §2
# kochia (Bassia scoparia) [6] = assay: as above; settings: 10 days
# Summary of the method: as §2
# [7] = tested on: blackgrass (Alopecurus myosuroides); assay: as above; settings: 10 days
# Summary of the method: as §2
# [8] = tested on: green foxtail (Setaria viridis); assay: as above; settings: 10 days
# Summary of the method: as §2
# corn (Zea mays) [9] = assay: as above; settings: 10 days
# Summary of the method: as §2
# soybean (Glycine max) [10] = assay: as above; settings: 10 days
# Summary of the method: as §2
# [11] = tested on: palmer (palmer amaranth, palmer pigweed, Amaranthus palmeri); assay: as above; settings: 10 days
# Summary of the method: as §2
# [12] = tested on: horseweed (Erigeron canadensis); assay: as above; settings: 10 days
# Summary of the method: as §2
# [13] = tested on: galium (catchweed bedstraw, Galium aparine); assay: as above; settings: 10 days
# Summary of the method: as §2
# [14] = tested on: barnyardgrass (Echinochloa crus-galli); assay: as above; settings: 10 days
# Summary of the method: as §2
# [15] = tested on: wheat (Triticum aestivum); assay: as above; settings: 10 days
# Summary of the method: as §2
# [16] = tested on: ragweed (common ragweed, Ambrosia artemisiifolia); assay: as above; settings: 10 days
# Summary of the method: as §2
# [17] = tested on: ryegrass, Italian (italian ryegrass, Lolium multiflorum); assay: Test A preemergence soil spray, visual injury rating 0-100; settings: 10 days, 0 = no effect, 100 = complete control
# Summary of the method: as §2
# [18] = tested on: oat, wild (wild oat, Avena fatua); assay: as above; settings: 10 days, 0 = no effect, 100 = complete control
# Summary of the method: as §2
# kochia (Bassia scoparia) [19] = assay: as above; settings: 10 days, 0 = no effect, 100 = complete control
# Summary of the method: as §2
# [20] = tested on: blackgrass (Alopecurus myosuroides); assay: as above; settings: 10 days, 0 = no effect, 100 = complete control
# Summary of the method: as §2
# [21] = tested on: green foxtail (Setaria viridis); assay: as above; settings: 10 days, 0 = no effect, 100 = complete control
# Summary of the method: as §2
# corn (Zea mays) [22] = assay: as above; settings: 10 days, 0 = no effect, 100 = complete control
# Summary of the method: as §2
# soybean (Glycine max) [23] = assay: as above; settings: 10 days, 0 = no effect, 100 = complete control
# Summary of the method: as §2
# [24] = tested on: palmer (palmer amaranth, palmer pigweed, Amaranthus palmeri); assay: as above; settings: 10 days, 0 = no effect, 100 = complete control
# Summary of the method: as §2
# [25] = tested on: barnyardgrass (Echinochloa crus-galli); assay: as above; settings: 10 days, 0 = no effect, 100 = complete control
# Summary of the method: as §2
# [26] = tested on: wheat (Triticum aestivum); assay: as above; settings: 10 days, 0 = no effect, 100 = complete control
# Summary of the method: as §2
# [27] = tested on: ragweed (common ragweed, Ambrosia artemisiifolia); assay: as above; settings: 10 days, 0 = no effect, 100 = complete control
# Summary of the method: as §2
# [28] = 31 g ai/ha, postemergence, 0 = no effect, 100 = complete control
# [29] = Postemergence, 125 g ai/ha, 0 is no effect, 100 is complete control
smiles,measurement,setting,value
CC1(C(=O)NC2CC=C(C(=O)OCC(F)(F)F)C2)CN(c2cc(F)cc(F)c2)C(=O)O1 (stereo not shown) [Compound 1],"Plant response rating, Sedge, Umbrella (0 to 100 scale, 0 is no effect and 100 is complete control)",[1],95
same,"Plant response rating, Barnyardgrass (0 to 100 scale, 0 is no effect and 100 is complete control)",[2],95
same,"Plant response rating, Rice (0 to 100 scale, 0 is no effect and 100 is complete control)",rice (Oryza sativa),80
same,"Plant response rating, Ducksalad (0 to 100 scale, 0 is no effect and 100 is complete control)",[3],60
same,"Ryegrass, Italian plant response rating (0-100)",[4]; [28],80
same,"Ryegrass, Italian plant response rating (0 to 100 scale)",[4]; [29],80
same,"Oat, Wild plant response rating (0-100)",[5]; [28],90
same,"Oat, Wild plant response rating (0 to 100 scale)",[5]; [29],100
same,Kochia plant response rating (0-100),kochia (Bassia scoparia) [6]; [28],70
same,Kochia plant response rating (0 to 100 scale),kochia (Bassia scoparia) [6]; [29],90
same,Blackgrass plant response rating (0-100),[7]; [28],90
same,Blackgrass plant response rating (0 to 100 scale),[7]; [29],100
same,"Foxtail, Green plant response rating (0-100)",[8]; [28],90
same,"Foxtail, Green plant response rating (0 to 100 scale)",[8]; [29],90
same,Corn plant response rating (0-100),corn (Zea mays) [9]; [28],100
same,Corn plant response rating (0 to 100 scale),corn (Zea mays) [9]; [29],100
same,Soybean plant response rating (0-100),soybean (Glycine max) [10]; [28],80
same,Soybean plant response rating (0 to 100 scale),soybean (Glycine max) [10]; [29],90
same,"Amaranth, Palmer plant response rating (0-100)",[11]; [28],90
same,"Amaranth, Palmer / Pigweed, Palmer plant response rating (0 to 100 scale)",[11]; [29],90
same,Horseweed plant response rating (0-100),[12]; [28],70
same,Horseweed plant response rating (0 to 100 scale),[12]; [29],80
same,Galium plant response rating (0-100),[13]; [28],90
same,Galium plant response rating (0 to 100 scale),[13]; [29],90
same,Barnyardgrass plant response rating (0-100),[14]; [28],100
same,Barnyardgrass plant response rating (0 to 100 scale),[14]; [29],100
same,Wheat plant response rating (0-100),[15]; [28],90
same,Wheat plant response rating (0 to 100 scale),[15]; [29],90
same,Ragweed plant response rating (0-100),[16]; [28],60
same,Ragweed plant response rating (0 to 100 scale),[16]; [29],70
same,"Ryegrass, Italian plant response rating (0-100)",[17]; 31 g ai/ha,80
same,"Ryegrass, Italian plant response rating (0 to 100 scale)",[17]; 125 g ai/ha,90
same,"Oat, Wild plant response rating (0-100)",[18]; 31 g ai/ha,60
same,"Oat, Wild plant response rating (0 to 100 scale)",[18]; 125 g ai/ha,80
same,Kochia plant response rating (0-100),kochia (Bassia scoparia) [19]; 31 g ai/ha,50
same,Kochia plant response rating (0 to 100 scale),kochia (Bassia scoparia) [19]; 125 g ai/ha,100
same,Blackgrass plant response rating (0-100),[20]; 31 g ai/ha,60
same,Blackgrass plant response rating (0 to 100 scale),[20]; 125 g ai/ha,70
same,"Foxtail, Green plant response rating (0-100)",[21]; 31 g ai/ha,100
same,"Foxtail, Green plant response rating (0 to 100 scale)",[21]; 125 g ai/ha,100
same,Corn plant response rating (0-100),corn (Zea mays) [22]; 31 g ai/ha,60
same,Corn plant response rating (0 to 100 scale),corn (Zea mays) [22]; 125 g ai/ha,90
same,Soybean plant response rating (0-100),soybean (Glycine max) [23]; 31 g ai/ha,70
same,Soybean plant response rating (0 to 100 scale),soybean (Glycine max) [23]; 125 g ai/ha,90
same,"Amaranth, Palmer plant response rating (0-100)",[24]; 31 g ai/ha,90
same,"Amaranth, Palmer plant response rating (0 to 100 scale)",[24]; 125 g ai/ha,100
same,Barnyardgrass plant response rating (0-100),[25]; 31 g ai/ha,90
same,Barnyardgrass plant response rating (0 to 100 scale),[25]; 125 g ai/ha,100
same,Wheat plant response rating (0-100),[26]; 31 g ai/ha,90
same,Wheat plant response rating (0 to 100 scale),[26]; 125 g ai/ha,100
same,Ragweed plant response rating (0-100),[27]; 31 g ai/ha,20
same,Ragweed plant response rating (0 to 100 scale),[27]; 125 g ai/ha,90
